# Laboratory results as given in patent US20250136594A1 (Tango Therapeutics, Inc., priority 2022, published 2025).
# pIC50: −log10 of the molar value. Like-named read-outs stand apart in the source and are kept apart here.
# Legend:
# [1] = tested on: HAP1 MTAP-deleted cell line; test: Viability assay, HAP1 MTAP-deleted cell line; type: cell-based; conditions: Homo sapiens
# [2] = tested on: SDMA in HAP1 MTAP-intact cell line (PRMT5 inhibition); test: SDMA in-cell western assay, HAP1 MTAP-intact cell line; conditions: Homo sapiens, HAP1, read-out: Hap1 MTAP intact IC50
# Description: (§1) HAP1 MTAP-intact is a cell line in which endogenous levels of MTAP are expressed, and HAP1 MTAP-deleted is an MTAP-null cell line.
# [3] = tested on: SDMA in HAP1 MTAP-deleted (MTAP-null) cell line (PRMT5 inhibition); test: SDMA in-cell western assay, HAP1 MTAP-deleted cell line; conditions: for pIC50 / IC90: Homo sapiens; for pIC50: HAP1, read-out: Hap1 MTAP deleted IC50; for IC90: HAP1, read-out: Hap1 MTAP deleted IC90; for Hap1 MTAP intact/deleted ratio: ratio of SDMA IC50 in HAP1 MTAP-intact to HAP1 MTAP-deleted cell line
# Description: as §1
# [4] = viability assay, HAP1 MTAP-deleted cell line, read-out: Hap1 MTAP deleted viability IC50
# [5] = HAP1, read-out: Hap1 MTAP deleted viability IC50
Compound,"pIC50 [1, 4]",pIC50 [2],pIC50 [3],IC90 [3] [nM],Hap1 MTAP intact/deleted ratio [3],"pIC50 [1, 5]"
"Cc1ccc(CN(Cc2ccccn2)C(=O)C(=O)Nc2cnc(N)c3cn[nH]c23)cc1 [Compound 190, N-(4-amino-1H-pyrazolo[4,3-c]pyridin-7-yl)-N′-(p-tolylmethyl)-N′-(2-pyridylmethyl)oxamide]",> 7.00,7.30 to 8.30,> 8.30,< 75,A (IC50 ratio greater than or equal to 30 fold),
"C[C@H](c1ccc(C(F)(F)F)cc1C(F)(F)F)N(C)C(=O)C(=O)Nc1cnc(N)c2cn[nH]c12 [Compound 193, N-(4-Amino-2H-pyrazolo[4,3-c]pyridin-7-yl)-N′-methyl-N′—[(1R)-1-[2,4-bis (trifluoromethyl)phenyl]ethyl]oxamide]",,< 7.30,> 8.30,< 75,,> 7.00
"Nc1ncc(NC(=O)C(=O)N(Cc2ccc(C(F)(F)F)cn2)Cc2ccccc2C(F)(F)F)c2[nH]ncc12 [Compound 163, N-(4-amino-1H-pyrazolo[4,3-c]pyridin-7-yl)-N′-[[2-(trifluoromethyl)phenyl]methyl]-N′-[[5-(trifluoromethyl)-2-pyridyl]methyl]oxamide]",> 7.00,7.30 to 8.30,7.30 to 8.30,75 to 125,C (IC50 ratio of less than 15 fold),
"CC(C)CN(C(=O)C(=O)Nc1cnc(N)c2cn[nH]c12)C(C)c1ccccc1 (stereo not drawn) [Compound 172, N-(4-amino-1H-pyrazolo[4,3-c]pyridin-7-yl)-N′-isobutyl-N′-(1-phenylethyl)oxamide]",> 7.00,< 7.30,> 8.30,< 75,B (IC50 ratio greater than or equal to 15 fold but lower than 30 fold),
"CCC(C)CN(Cc1ccccn1)C(=O)C(=O)Nc1cnc(N)c2cn[nH]c12 (stereo not drawn) [Compound 152, N-(4-amino-1H-pyrazolo[4,3-c]pyridin-7-yl)-N′-(2-methylbutyl)-N′-(2-pyridylmethyl)oxamide]",> 7.00,< 7.30,> 8.30,< 75,A (IC50 ratio greater than or equal to 30 fold),
"Nc1ncc(NC(=O)C(=O)N(Cc2ccccc2)CC2CCCCO2)c2[nH]ncc12 (stereo not drawn) [Compound 148, N-(4-amino-1H-pyrazolo[4,3-c]pyridin-7-yl)-N′-benzyl-N′-(tetrahydropyran-2-ylmethyl)oxamide]",6.00 to 7.00,< 7.30,> 8.30,75 to 125,A (IC50 ratio greater than or equal to 30 fold),
"CCN(C(=O)C(=O)Nc1cnc(N)c2cn[nH]c12)[C@H](C)c1ccc(C(F)(F)C(F)(F)F)cc1C [Compound 59, (R)—N^1-(4-amino-1H-pyrazolo[4,3-c]pyridin-7-yl)-N^2-ethyl-N^2-(1-(2-methyl-4-(perfluoroethyl)phenyl)ethyl)oxalamide]",> 7.00,7.30 to 8.30,> 8.30,< 75,C (IC50 ratio of less than 15 fold),
"CCN(C(=O)C(=O)Nc1cnc(N)c2cn[nH]c12)[C@@H](C)c1ccc(C(F)(F)F)cc1C [Compound 57, (S)—N^1-(4-amino-1H-pyrazolo[4,3-c]pyridin-7-yl)-N^2-ethyl-N^2-(1-(2-methyl-4-(trifluoromethyl)phenyl)ethyl)oxalamide]",> 7.00,< 7.30,> 8.30,< 75,B (IC50 ratio greater than or equal to 15 fold but lower than 30 fold),
"CC[C@H](C)CN(Cc1ccc(C(F)(F)F)cn1)C(=O)C(=O)Nc1cnc(N)c2cn[nH]c12 [Compound 64, (S)—N^1-(4-amino-1H-pyrazolo[4,3-c]pyridin-7-yl)-N^2-(2-methylbutyl)-N^2-((5-(trifluoromethyl)pyridin-2-yl)methyl)oxalamide]",> 7.00,> 8.30,> 8.30,< 75,C (IC50 ratio of less than 15 fold),
"Cc1cc(NC(=O)C(=O)N(Cc2ccc(C(F)(F)F)cn2)[C@H](C)c2ncccn2)cnc1N [Compound 6, N-(6-amino-5-methyl-3-pyridyl)-N′—[(1R)-1-pyrimidin-2-ylethyl]-N′-[[5-(trifluoromethyl)-2-pyridyl]methyl]oxamide]",6.00 to 7.00,> 8.30,> 8.30,> 125,C (IC50 ratio of less than 15 fold),
"Nc1ncc(NC(=O)C(=O)N(Cc2ccc(C(F)(F)F)cn2)Cc2ccccc2Cl)c2[nH]ncc12 [Compound 182, N-(4-amino-1H-pyrazolo[4,3-c]pyridin-7-yl)-N′-[(2-chlorophenyl)methyl]-N′-[[5-(trifluoromethyl)-2-pyridyl]methyl]oxamide]",> 7.00,7.30 to 8.30,7.30 to 8.30,< 75,C (IC50 ratio of less than 15 fold),
"Cc1cc(NC(=O)C(=O)N(Cc2ccc(C(F)(F)F)cn2)[C@@H]2CCC[C@H]2OC(F)F)cnc1N [Compound 19, N1-(6-amino-5-methylpyridin-3-yl)-N^2-((1R,2R)-2-(difluoromethoxy)cyclopentyl)-N^2-((5-(trifluoromethyl)pyridin-2-yl)methyl)oxalamide]",6.00 to 7.00,7.30 to 8.30,> 8.30,> 125,C (IC50 ratio of less than 15 fold),
"C[C@@H](c1ccc(C(F)(F)F)cc1)N(C)C(=O)C(=O)Nc1cnc(N)c2c1cnn2C [Compound 79, N-(7-Amino-1-methyl-pyrazolo[3,4-c]pyridin-4-yl)-N′-methyl-N′—[(1S)-1-[4-(trifluoromethyl)phenyl]ethyl]oxamide]",6.00 to 7.00,< 7.30,7.30 to 8.30,> 125,A (IC50 ratio greater than or equal to 30 fold),
Nc1ncc(NC(=O)C(=O)N(Cc2ccc(C(F)(F)F)cc2)C2CCC2)c2[nH]ncc12 [Compound 118],> 7.00,< 7.30,> 8.30,75 to 125,B (IC50 ratio greater than or equal to 15 fold but lower than 30 fold),
"Cc1cc(NC(=O)C(=O)N(Cc2ccc(C(F)(F)F)cn2)C(C)c2ncccn2)cnc1N (racemic) [Compound 16, N-(6-amino-5-methyl-3-pyridyl)-N′-(1-pyrimidin-2-ylethyl)-N′-[[5-(trifluoromethyl)-2-pyridyl]methyl]oxamide]",6.00 to 7.00,7.30 to 8.30,7.30 to 8.30,> 125,C (IC50 ratio of less than 15 fold),
"Cc1ccccc1CN(CC1CC1)C(=O)C(=O)Nc1cnc(N)c2cn[nH]c12 [Compound 155, N-(4-amino-1H-pyrazolo[4,3-c]pyridin-7-yl)-N′-(cyclopropylmethyl)-N′-(o-tolylmethyl)oxamide]",> 7.00,< 7.30,> 8.30,< 75,A (IC50 ratio greater than or equal to 30 fold),
"Cc1cc(F)cnc1CN(Cc1ccccc1)C(=O)C(=O)Nc1cnc(N)c2cn[nH]c12 [Compound 116, N-(4-amino-2H-pyrazolo[4,3-c]pyridin-7-yl)-N′-benzyl-N′-[(5-fluoro-3-methyl-2-pyridyl)methyl]oxamide]",> 7.00,7.30 to 8.30,> 8.30,< 75,B (IC50 ratio greater than or equal to 15 fold but lower than 30 fold),
"CCN(Cc1ccc(C(F)(F)F)cc1C)C(=O)C(=O)Nc1cnc(N)c2cn[nH]c12 [Compound 104, N-(4-Amino-1H-pyrazolo[4,3-c]pyridin-7-yl)-N′-ethyl-N′-[[2-methyl-4-(trifluoromethyl)phenyl]methyl]oxamide]",> 7.00,< 7.30,> 8.30,< 75,A (IC50 ratio greater than or equal to 30 fold),
"Nc1ncc(NC(=O)C(=O)N(Cc2ccccc2)Cc2ccccc2)c2[nH]ncc12 [Compound 21, N-(4-amino-1H-pyrazolo[4,3-c]pyridin-7-yl)-N′,N′-dibenzyl-oxamide]",,< 7.30,> 8.30,< 75,,> 7.00
"Nc1ncc(NC(=O)C(=O)N(Cc2ccc(C(F)(F)F)cn2)C2CC2)c2[nH]ncc12 [Compound 159, N-(4-Amino-1H-pyrazolo[4,3-c]pyridin-7-yl)-N′-cyclopropyl-N′-[[5-(trifluoromethyl)-2-pyridyl]methyl]oxamide]",> 7.00,< 7.30,> 8.30,75 to 125,B (IC50 ratio greater than or equal to 15 fold but lower than 30 fold),
"Nc1ncc(NC(=O)C(=O)N(Cc2ccccn2)Cc2cccc3ccccc23)c2[nH]ncc12 [Compound 132, N-(4-amino-2H-pyrazolo[4,3-c]pyridin-7-yl)-N′-(1-naphthylmethyl)-N′-(2-pyridylmethyl)oxamide]",> 7.00,7.30 to 8.30,> 8.30,< 75,A (IC50 ratio greater than or equal to 30 fold),
"Cc1ccccc1CN(CC(C)C)C(=O)C(=O)Nc1cnc(N)c2cn[nH]c12 [Compound 185, N-(4-amino-1H-pyrazolo[4,3-c]pyridin-7-yl)-N′-isobutyl-N′-(o-tolylmethyl)oxamide]",> 7.00,< 7.30,> 8.30,< 75,A (IC50 ratio greater than or equal to 30 fold),
